Test system: Plasmodium berghei
Test: Luciferase/luciferin-expressing antifolate-resistant parasites were used to infect a culture of HepG2 cells that were pre-incubated with compounds. Infected hepatocytes emit light due to the luciferase reaction. Assay results are presented as the percent inhibition of light emission compared to control. […]
Format: functional
Conditions: sporozoite; for IC90: read-out: LUCIFERASE INFECTION ASSAY - IC90
[1] = read-out: LUCIFERASE INFECTION ASSAY - IC50

| Structure (SMILES) | IC90 [µM] | IC50 [1] [µM] | also measured |
| --- | --- | --- | --- |
| O=C(Nc1cc(Cl)cc(Cl)c1)Nc1cc(-c2cccs2)n[nH]1 | 9.3 | – | IC50 (FFLUC_HILL_SLOPE 1.15, FFLUC_R_SQUARED 0.0672, PBLUC_HILL_SLOPE 14.1, PBLUC_R_SQUARED 0.219, read-out: LUCIFERASE INFECTION ASSAY - IC50): 7.95 µM |
| Oc1cccc(-c2cnc3cnc(-c4cccs4)cn23)c1 | > 11.2 | > 11.2 | – |
| CC/C(=N\OC(=O)c1cccc(C(F)(F)F)c1)c1ccc(-c2ccccc2F)cc1 | > 7.94 | – | IC50 (HEPG2TOX_HILL_SLOPE 1.72, HEPG2TOX_R_SQUARED 0.909, PBLUC_HILL_SLOPE 3.88, PBLUC_R_SQUARED 0.158, read-out: LUCIFERASE INFECTION ASSAY - IC50): 6.84 µM |
| COc1ccc(/C=C(\C#N)c2n[nH]c(=O)c3ccccc23)cc1 | > 10 | 4.17 | – |
| CCc1nc(Sc2nnnn2-c2ccccc2)c2c3c(sc2n1)CCCC3 | > 10 | > 10 | – |
| CC(C)c1cc(NCCCN2CCOCC2)n2ncc(-c3ccccc3)c2n1 | > 8.7 | – | IC50 (PBLUC_HILL_SLOPE 2.21, PBLUC_R_SQUARED 0.515, read-out: LUCIFERASE INFECTION ASSAY - IC50): 4.34 µM |
| Cc1ccc(C)c(OCCCN2C(=O)NC(Cc3c[nH]c4ccccc34)C2=O)c1 (stereo not given) | > 10 | > 10 | – |
| Cc1cc(C)c2cc(C(=O)Nc3ccc(N4CCN(C)CC4)nc3)[nH]c2c1 | 3.64 | – | IC50 (HEPG2TOX_HILL_SLOPE 1.47, HEPG2TOX_R_SQUARED 0.9, PBLUC_HILL_SLOPE 16.4, PBLUC_R_SQUARED 0.482, read-out: LUCIFERASE INFECTION ASSAY - IC50): 3.19 µM |
| O=C(/C=C/c1ccc([N+](=O)[O-])s1)Nc1ccc(F)cc1F | > 10 | 8.88 | – |
| c1ccc(NCc2ccc(-c3cn4c(-c5ccncc5)cnc4cn3)cc2)cc1 | > 8.74 | > 8.74 | – |
| CC(Oc1ccc(Cl)cc1Cl)C(=O)Nc1nc(-c2c[nH]c(C(N)=O)c2)cs1 (stereo not given) | 2.99 | – | IC50 (PBLUC_HILL_SLOPE 4.28, PBLUC_R_SQUARED 0.703, read-out: LUCIFERASE INFECTION ASSAY - IC50): 1.79 µM |
| Cn1c(N)c(Sc2ccccc2[N+](=O)[O-])c(=O)n(C)c1=O | > 10 | > 10 | – |
| CC(=O)c1ccc(NC(=O)c2cc(-c3cc(C)ccc3C)nc3ccccc23)cc1 | > 8.37 | – | IC50 (PBLUC_HILL_SLOPE 2.38, PBLUC_R_SQUARED 0.305, read-out: LUCIFERASE INFECTION ASSAY - IC50): 4.56 µM |
| N#CC(C#N)=C1C=C(c2ccc(O)cc2)Oc2ccccc21 | > 10 | – | IC50 (FFLUC_HILL_SLOPE 1.23, FFLUC_R_SQUARED 0.408, read-out: LUCIFERASE INFECTION ASSAY - IC50): > 10 µM |
| Cc1nn2c(=O)cc(Cn3ccnc3)nc2s1 | > 10 | > 10 | – |
| O=C(CSc1nnc(Nc2ccc(SC(F)F)cc2)s1)c1cccs1 | > 10 | – | IC50 (FFLUC_HILL_SLOPE 26.5, FFLUC_R_SQUARED 0.442, read-out: LUCIFERASE INFECTION ASSAY - IC50): > 10 µM |
| N=C1C(=S)N(c2ccc(Cl)c(Cl)c2)C(=O)N1c1ccc(OC(F)(F)F)cc1 | > 7.6 | – | IC50 (FFLUC_HILL_SLOPE 13.1, FFLUC_R_SQUARED 0.176, read-out: LUCIFERASE INFECTION ASSAY - IC50): > 7.6 µM |
| O=C(Cn1c(=O)oc2ccccc21)N1CCCC1c1nc2ccccc2s1 (stereo not given) | > 10 | – | IC50 (PBLUC_HILL_SLOPE 7.81, PBLUC_R_SQUARED 0.364, read-out: LUCIFERASE INFECTION ASSAY - IC50): 8.38 µM |
| O=S(=O)(Oc1cccc2[nH]ccc12)c1ccc(Cl)cc1Cl | > 9.64 | > 9.64 | – |
| COc1ccc(-c2nc(C(=O)NC3CC3)cc3c2[nH]c2ccccc23)cc1 | 7.59 | – | IC50 (HEPG2TOX_HILL_SLOPE 1.32, HEPG2TOX_R_SQUARED 0.984, PBLUC_HILL_SLOPE 2.25, PBLUC_R_SQUARED 0.475, read-out: LUCIFERASE INFECTION ASSAY - IC50): 2.85 µM |
| COc1ccc(C(C)(C)C)cc1NC(=O)C(=O)c1c(-c2ccccc2)cc2ccccn12 | 8.89 | – | IC50 (PBLUC_HILL_SLOPE 2.71, PBLUC_R_SQUARED 0.442, read-out: LUCIFERASE INFECTION ASSAY - IC50): 3.95 µM |
| O=c1c(Br)c(Br)cnn1-c1ccccc1 | > 10 | – | IC50 (HEPG2TOX_HILL_SLOPE 14.1, HEPG2TOX_R_SQUARED 0.656, PBLUC_HILL_SLOPE 2.79, PBLUC_R_SQUARED 0.266, read-out: LUCIFERASE INFECTION ASSAY - IC50): 6.1 µM |
| FC(F)(F)c1ccnc(N2CCN(c3ncnc4scc(-c5ccccc5)c34)CC2)n1 | > 7.46 | > 7.46 | – |

| Structure (SMILES) | IC90 [µM] | IC50 [1] [µM] | also measured |
| --- | --- | --- | --- |
| CCCn1c(NC(=O)c2ccc(S(=O)(=O)N3CC(C)OC(C)C3)cc2)nc2ccccc21 (stereo not given) | 5.08 | – | IC50 (HEPG2TOX_HILL_SLOPE 9.83, HEPG2TOX_R_SQUARED 0.869, PBLUC_HILL_SLOPE 10.1, PBLUC_R_SQUARED 0.696, read-out: LUCIFERASE INFECTION ASSAY - IC50): 4.09 µM |
| Cc1ccc(O)c(-c2cc(-c3ccccc3)c3ccccc3n2)c1 | > 10 | > 10 | – |
| CCOC(=O)c1c(C)[nH]c(C(=O)Nc2ncccc2C)c1C | > 10 | – | IC50 (PBLUC_HILL_SLOPE 1.33, PBLUC_R_SQUARED 0.354, read-out: LUCIFERASE INFECTION ASSAY - IC50): 2.54 µM |
| NC(Cc1ccc(Cl)cc1)c1csc(NC(=O)Nc2ccccc2Cc2ccccc2)n1 (stereo not given) | > 7.13 | – | IC50 (PBLUC_HILL_SLOPE 11.7, PBLUC_R_SQUARED 0.713, read-out: LUCIFERASE INFECTION ASSAY - IC50): 6.46 µM |
| Cc1ccc(C)c(OCCSc2ccc(C(=O)NC3CC3)cn2)c1 | 3.93 | 3.35 | – |
| Nc1c(NCCO)cc(NC2CCCCC2)c2c1C(=O)c1ccccc1C2=O | > 8.7 | – | IC50 (FFLUC_HILL_SLOPE 12.9, FFLUC_R_SQUARED 0.405, PBLUC_HILL_SLOPE 2.49, PBLUC_R_SQUARED 0.563, read-out: LUCIFERASE INFECTION ASSAY - IC50): > 8.7 µM |
| COc1ccc(C(CNc2nc(-c3cccnc3)nc3ccccc23)c2c[nH]c3ccccc23)cc1 (stereo not given) | > 10 | – | IC50 (PBLUC_HILL_SLOPE 8.92, PBLUC_R_SQUARED 0.072, read-out: LUCIFERASE INFECTION ASSAY - IC50): > 10 µM |
| Cc1ccc(C(CN2CCOCC2)Nc2nc(C(F)(F)F)nc3ccccc23)cc1 (stereo not given) | 3.63 | – | IC50 (FFLUC_HILL_SLOPE 0.43, FFLUC_R_SQUARED 0.0433, PBLUC_HILL_SLOPE 12.3, PBLUC_R_SQUARED 0.751, read-out: LUCIFERASE INFECTION ASSAY - IC50): 3.04 µM |
| N=C(NOC(=O)Nc1ccc(OC(F)(F)F)cc1)c1cnccn1 | > 9.67 | > 9.67 | – |
| O=C(Nc1nc(CN2CCCC2)cs1)c1ccc(-c2ccccc2)cc1 | > 10 | – | IC50 (HEPG2TOX_HILL_SLOPE 2.9, HEPG2TOX_R_SQUARED 0.919, read-out: LUCIFERASE INFECTION ASSAY - IC50): > 10 µM |
| Cc1ccc(COC(=O)c2cccc3c(=O)c(C)c(-c4ccccc4)oc23)cc1 | > 10 | > 10 | – |
| Cc1cccc2sc(C(=O)NCc3cccc(NS(N)(=O)=O)c3)c(Cl)c12 | 1.3 | – | IC50 (PBLUC_HILL_SLOPE 16.9, PBLUC_R_SQUARED 0.264, read-out: LUCIFERASE INFECTION ASSAY - IC50): 1.14 µM |
| NS(=O)(=O)c1ccc(CCNc2nn3c(-c4cccc(Cl)c4)cnc3s2)cc1 | > 7.6 | – | IC50 (FFLUC_HILL_SLOPE 1.14, FFLUC_R_SQUARED 0.295, read-out: LUCIFERASE INFECTION ASSAY - IC50): > 7.6 µM |
| Cc1cc(NC(=O)CCNC(C)c2ccc(CC(C)C)cc2)no1 (stereo not given) | > 10 | > 10 | – |
| Cc1ccc2nc(NC(=O)c3cccc(C(F)(F)F)c3)c(C(=O)NC3CCCCC3)n2c1 | 0.579 | – | IC50 (FFLUC_HILL_SLOPE 2.54, FFLUC_R_SQUARED 0.701, HEPG2TOX_HILL_SLOPE 1.03, HEPG2TOX_R_SQUARED 0.261, PBLUC_HILL_SLOPE 2.67, PBLUC_R_SQUARED 0.838, read-out: LUCIFERASE INFECTION ASSAY - IC50): 0.254 µM |
| N#C/C(=C\c1ccc2c(c1)OCCO2)c1ccc(C(F)(F)F)cn1 | > 10 | > 10 | – |
| CC(C)c1ccc(C(=O)N2CCC(CCCC3CCN(C(=O)c4ccc(C(C)C)cc4)CC3)CC2)cc1 | > 10 | – | IC50 (HEPG2TOX_HILL_SLOPE 8.83, HEPG2TOX_R_SQUARED 0.537, read-out: LUCIFERASE INFECTION ASSAY - IC50): > 10 µM |
| CCN(C(=O)c1ccccc1Br)c1nc2c(C)cccc2s1 | > 10 | > 10 | – |
| c1ccc(Oc2ccccc2-c2cnn3c(NCc4ccccn4)ccnc23)cc1 | > 8.39 | – | IC50 (PBLUC_HILL_SLOPE 14.9, PBLUC_R_SQUARED 0.143, read-out: LUCIFERASE INFECTION ASSAY - IC50): 8.25 µM |
| C(=C(c1nc2ccccc2s1)c1nc2ccccc2s1)C1=C(c2ccccc2)Oc2ccccc2O1 | > 10 | – | IC50 (FFLUC_HILL_SLOPE 7.98, FFLUC_R_SQUARED 0.561, PBLUC_HILL_SLOPE 1.21, PBLUC_R_SQUARED 0.509, read-out: LUCIFERASE INFECTION ASSAY - IC50): 9.27 µM |
| O=C(Cn1ncc(Cl)c(Cl)c1=O)NCC12CC3CC(CC(C3)C1)C2 | > 10 | – | IC50 (FFLUC_HILL_SLOPE 71.8, FFLUC_R_SQUARED 0.575, read-out: LUCIFERASE INFECTION ASSAY - IC50): > 10 µM |
| O=C(Nc1ccc(Cl)c(C(F)(F)F)c1)Nc1ccc2nc(-c3ccsc3)nn2c1 | 9.25 | – | IC50 (HEPG2TOX_HILL_SLOPE 8.17, HEPG2TOX_R_SQUARED 0.277, PBLUC_HILL_SLOPE 11.1, PBLUC_R_SQUARED 0.655, read-out: LUCIFERASE INFECTION ASSAY - IC50): 7.59 µM |
